Assay results from US4123546A, “Antidepressant compounds” (E. I. Du Pont de Nemours and Company, priority 1977, dated 1978).
Counter-ions that a name gives are not always drawn. Like-named read-outs stand apart in the source and are kept apart here.

Tests used:
[1] = tested on: tetrabenazine-induced depression; test: prevention of tetrabenazine-induced sedation and depression in mice (exploratory activity and ptosis); type: in vivo, Carworth CF1 S female mice; settings: for ED50: Mus musculus, po; for ED50 Ptosis / ED50 Exploratory: 60 min
Text: A standard procedure for detecting and comparing the antidepressant activity of compounds in this series for which there is good correlation with human efficacy is the prevention of tetrabenazine-induced sedation and depression in mice. (Everett, "The Dopa Response Potentiation Test and Its Use in Screening for Antidepressant Drugs", pp. 164-167 in "Antidepressant Drugs" [Proceedings of the First International Symposium], S. Garattini and M. N. G. Dukes, eds., 1967.).
Groups of 10 Carworth CF1 S female mice, 18-21 g. each, were fasted 1.5 hours and were intubated with antagonist compounds at oral doses of 0, 5, 25, and 125 mg/kg or 0, 1, 3, 9, 27, and 81 mg/kg in 0.20 ml. of 1% Methocel (methylcellulose) 1.25% Tween 80. The mice were challenged 30 minutes later with tetrabenazine (as the methane-sulfonate), 32 mg/kg intraperitoneally (dissolved in 0.20 ml. 0.05M KCl at pH 2.0). One hour after antagonist (30 minutes after tetrabenazine), the mice were examined for signs of exploratory activity and ptosis (eyelid closure). Normal exploratory activity (relief from sedation) was recorded when a mouse lifted by the tail from a group of 10 in a testing box and placed on a stainless steel testing box lid (12.5" × 8" with 0.33" mesh) either turned its head horizontally 30° in both direction or moved to the edge of the screen within 10 seconds after being placed on the screen. Relief from ptosis was recorded when exactly 2 seconds after placing the mouse facing the observer, lid closure was less than 50% in both eyes.
For comparison, the marketed antidepressant Amitriptyline was also tested, and an ED50 (effective dose in 50% of the cases) was determined. The lower the ED50, the better the antidepressant.

[2] = tested on: hexabarbitol potentiation; test: hexabarbitol potentiation in mice (sedative qualities); type: in vivo
Text: (§1) An antidepressant which acts by inhibiting MAO is not acceptable.

[3] = tested on: monoamine oxidase (MAO); test: tryptamine potentiation in mice (monoamine oxidase inhibition); type: in vivo
Text: as §1

[4] = Table I, orally, 1 hour post-drug, tetrabenazine 32 mg/kg i.p. 30 min after drug, relief from ptosis
[5] = Table I, orally, 1 hour post-drug, tetrabenazine 32 mg/kg i.p. 30 min after drug, relief from sedation (exploratory activity)
[6] = Table II (formula II compounds), orally, 1 hour post-drug, relief from ptosis, read-out: ED50 Ptosis
[7] = Table II (formula II compounds), orally, 1 hour post-drug, relief from sedation (exploratory activity), read-out: ED50 Exploratory

Compound | ED50 Ptosis [1, 4] | ED50 Exploratory [1, 5] | ED50 [1, 6] | ED50 [1, 7] | further results
CN(C)CCC=C1c2ccccc2CCc2ccccc21 [Amitriptylene . HCl, reference compound] | – | – | – | – | ED50 ([1]; Table I, orally, 1 hour post-drug, tetrabenazine 32 mg/kg i.p. 30 min after drug, relief from ptosis, read-out: ED50 Ptosis): 1.5 mg/kg; ED50 ([1]; Table I, orally, 1 hour post-drug, tetrabenazine 32 mg/kg i.p. 30 min after drug, relief from sedation (exploratory activity), read-out: ED50 Exploratory): 3.7 mg/kg
CN(C)CCCOC12c3ccccc3C3C(c4ccccc41)N32 (stereo not drawn) [CH2 CH2 CH2 N(CH3)2, 3-[(4b, 4c-Dihydro-8bH-azirino[2,1,3-cd]dibenzo[a,f]-pyrrolizin-8b-yl)oxy]propyl-N,N-dimethylamine] | – | – | – | – | ED50 ([1]; 1 h, read-out: ED50 Exploratory, Table I, orally, 1 hour post-drug, tetrabenazine 32 mg/kg i.p. 30 min after drug, relief from sedation (exploratory activity)): 67 mg/kg; ED50 ([1]; 1 h, read-out: ED50 Ptosis, Table I, orally, 1 hour post-drug, tetrabenazine 32 mg/kg i.p. 30 min after drug, relief from ptosis): 56 mg/kg
CN(C)CCOC12c3ccccc3C3C(c4ccccc41)N32 (stereo not drawn) [CH2 CH2 N(CH3)2 . Maleate, 2-[4b, 4c-Dihydro-8bH-azirino[2,1,3-cd]dibenzo[a,f]pyrrolizin-8b-yl)oxy]ethyl-N,N-dimethylamine Maleate] | 8 mg/kg | 9 mg/kg | – | – | –
CN(C)CCOC12NC(c3ccccc31)C(Cl)c1ccccc12 (stereo not drawn) [CH2 CH2 N(CH3)2 H Cl, 10,11-Dihydro-5,10-imino-5-[2-(N,N-dimethylamino)-ethoxy]-11-chloro-5H-dibenzo[a,d]cycloheptene] | – | – | 15 mg/kg | 25 mg/kg | –
CN(C)CCOC12NC(Cc3ccccc31)c1ccccc12 (stereo not drawn) [CH2 CH2 N(CH3)2 H H, 10,11-Dihydro-5,10-imino-5-[2-(N,N-dimethylamino)-ethoxy]-5H-dibenzo[a,d]cycloheptene] | – | – | 15 mg/kg | 15 mg/kg | –
CN(C)CCOC12c3ccccc3C3C(c4ccccc41)N32 (stereo not drawn) [CH2 CH2 N(CH3)2, 2-[(4b, 4c-Dihydro-8bH-azirino[2,1,3-cd]dibenzo[a,f]pyrrolizin-8b-yl)oxy]ethyl-N,N-dimethylamine] | 2 mg/kg | 2 mg/kg | – | – | sedative qualities ([2]; implied by hexabarbitol potentiation in mice, at high doses): sedative qualities at high doses; potentiation of hexabarbitol ([2]; in mice): potentiates hexabarbitol in mice; monoamine oxidase (MAO) inhibition ([3]; implied by lack of tryptamine potentiation in mice): not a monoamine oxidase (MAO) inhibitor; potentiation of tryptamine ([3]; in mice): not to potentiate tryptamine in mice
NCCOC12c3ccccc3C3C(c4ccccc41)N32 (stereo not drawn) [CH2 CH2 NH2 . Maleate] | 10.3 mg/kg | 11.8 mg/kg | – | – | –
NCCOC12c3ccccc3C3C(c4ccccc41)N32 (stereo not drawn) [CH2 CH2 NH2 . Tartate] | 2.7 mg/kg | 3.3 mg/kg | – | – | –
NCCOC12NC(c3ccccc31)C(Cl)c1ccccc12 (stereo not drawn) [CH2 CH2 NH2 H Cl, 10,11-Dihydro-5,10-imino-5-(2-aminoethoxy)-11-chloro-5H-dibenzo[a,d]cycloheptene] | – | – | 37 mg/kg | 37 mg/kg | –
NCCOC12c3ccccc3C3C(c4ccccc41)N32 (stereo not drawn) [CH2 CH2 NH2] | 1 mg/kg | 2 mg/kg | – | – | –
